In patent US20250120927A1, “CNDP2 MODULATORS AND METHODS FOR THEIR USE” (Metabolon Inc., priority 2023, published 2025):

The compounds below were run against CNDP2 (Homo sapiens (Human), UniProt Q96KP4) (assay: CNDP2 enzyme inhibition assay (Met-His hydrolysis, free histidine by o-phthaldialdehyde fluorescence), dose-response). Details: 50 nM purified CNDP2 (Sino Biological), 1 mM Met-His substrate, 30 minutes at 37° C.; TABLE 1.
Assay type: biochemical
Procedure: To identify optimal conditions for identifying novel inhibitors of CNDP2, enzyme assays were performed with varied sources of purified enzyme, concentrations of enzyme, peptide substrates, concentrations of peptide substrates and metal cofactors. […] The reaction mixture was incubated for 30 minutes at 37° C. before it was quenched with an equal volume of 1% TCA. Free histidine was quantified after derivatization with a fluorophore (o-phthaldialdehyde from Sigma-Aldrich, excitation 340 nm, emission 460 nm). The reaction was conducted in an automation-friendly format to meet future screening throughput demands. A histidine titration standard curve was also included to enable conversion of fluorescence signal to molar concentration of histidine released by the hydrolysis reaction and to ensure the linearity of the fluorescence signal vs. free histidine.
Compounds of Formula (I) disclosed herein were screened for potency in inhibiting CNDP2 enzyme activity in a dose-response experiment. Bestatin was included with each batch of test molecules as a benchmark for assay quality control.

Sequence of CNDP2 (Q96KP4 whole entry): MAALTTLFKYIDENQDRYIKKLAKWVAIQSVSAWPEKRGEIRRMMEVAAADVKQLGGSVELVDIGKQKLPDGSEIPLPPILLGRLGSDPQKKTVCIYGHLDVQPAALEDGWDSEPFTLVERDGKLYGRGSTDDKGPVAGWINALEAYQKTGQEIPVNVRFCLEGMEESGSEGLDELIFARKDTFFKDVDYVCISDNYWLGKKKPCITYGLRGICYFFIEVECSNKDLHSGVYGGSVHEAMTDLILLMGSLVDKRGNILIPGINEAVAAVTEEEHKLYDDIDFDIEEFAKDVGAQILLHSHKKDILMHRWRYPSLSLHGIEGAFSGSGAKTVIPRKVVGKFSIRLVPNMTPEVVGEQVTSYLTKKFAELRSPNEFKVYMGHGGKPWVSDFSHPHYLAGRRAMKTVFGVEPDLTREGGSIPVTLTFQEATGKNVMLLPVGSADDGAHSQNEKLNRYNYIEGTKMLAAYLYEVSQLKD

For `N[C@H](Cc1ccccc1)[C@H](O)C(=O)N[C@@H](Cc1ccc(F)cc1)C(=O)O` [Compound 1, (S)-2-((2S,3R)-3-amino-2-hydroxy-4-phenylbutanamido)-3-(4-fluorophenyl)propanoic acid], which IC50 is on record?
The IC50 was ≥ 1 µM.

With `N[C@H](Cc1ccccc1)[C@H](O)C(=O)NC(C(=O)O)c1ccccc1` (stereo partly drawn) [Compound 3, 2-[[(2S,3R)-3-amino-2-hydroxy-4-phenyl-butanoyl]amino]-2-phenyl-acetic acid] as the compound, how does the IC50 read?
The IC50 was ≥ 1 µM.

`N[C@H](Cc1ccccc1)[C@H](O)C(=O)N[C@H](C(=O)O)C1CCCC1` [Compound 4, (2S)-2-[[(2S,3R)-3-amino-2-hydroxy-4-phenyl-butanoyl]amino]-2-cyclopentyl-acetic acid] was tested. Which IC50 did it give?
The IC50 was 0.1 to 1 µM.

With `N[C@H](Cc1ccccc1)[C@H](O)C(=O)N[C@H](C(=O)O)C1CCCCC1` [Compound 5, (2S)-2-[[(2S,3R)-3-amino-2-hydroxy-4-phenyl-butanoyl]amino]-2-cyclohexyl-acetic acid] as the compound, how does the IC50 read?
Its IC50 is 0.1 to 1 µM.

How did the IC50 turn out when `COc1ccccc1[C@H](NC(=O)[C@@H](O)[C@H](N)Cc1ccccc1)C(=O)O` [Compound 8, (2S)-2-[[(2S,3R)-3-amino-2-hydroxy-4-phenyl-butanoyl]amino]-2-(2-methoxyphenyl)acetic acid] was run?
Its IC50 is ≥ 1 µM.

For `N[C@H](Cc1ccccc1)[C@H](O)C(=O)N[C@H](C(=O)O)c1cccnc1` [Compound 9, (2S)-2-[[(2S,3R)-3-amino-2-hydroxy-4-phenyl-butanoyl]amino]-2-(3-pyridyl)acetic acid], which IC50 is on record?
Its IC50 is ≥ 1 µM.

For `N[C@H](Cc1ccccc1)[C@H](O)C(=O)NC(C(=O)O)c1cccc(C(F)(F)F)c1` (stereo partly drawn) [Compound 10, 2-[[(2S,3R)-3-amino-2-hydroxy-4-phenyl-butanoyl]amino]-2-[3-(trifluoromethyl)phenyl]acetic acid], which IC50 is on record?
Its IC50 is < 0.1 µM.

How did the IC50 turn out when `N[C@H](Cc1ccccc1)[C@H](O)C(=O)N[C@@H](Cc1ccccc1C(F)(F)F)C(=O)O` [Compound 11, 2-[[(2S,3R)-3-amino-2-hydroxy-4-phenyl-butanoyl]amino]-3-[2-(trifluoromethyl)phenyl]propanoic acid] was run?
Its IC50 is ≥ 1 µM.

How did the IC50 turn out when `CC(c1ccccc1)[C@H](NC(=O)[C@@H](O)[C@H](N)Cc1ccccc1)C(=O)O` (stereo partly drawn) [Compound 14, 2-[[(2S,3R)-3-amino-2-hydroxy-4-phenyl-butanoyl]amino]-3-phenyl-butanoic acid] was run?
The IC50 was ≥ 1 µM.

For `N[C@H](Cc1ccccc1)[C@H](O)C(=O)NC1(C(=O)O)CCCC1` [Compound 15, 1-[[(2S,3R)-3-amino-2-hydroxy-4-phenyl-butanoyl]amino]cyclopentane carboxylic acid], which IC50 is on record?
The IC50 was ≥ 1 µM.

With `N[C@H](Cc1ccccc1)[C@H](O)C(=O)NC(Cc1ccc(C(F)(F)F)cc1)C(=O)O` (stereo partly drawn) [Compound 16, 2-[[(2S,3R)-3-amino-2-hydroxy-4-phenyl-butanoyl]amino]-3-[4-(trifluoromethyl)phenyl]propanoic acid] as the compound, how does the IC50 read?
The IC50 was 0.1 to 1 µM.

How did the IC50 turn out when `N[C@H](Cc1ccccc1)[C@H](O)C(=O)NC(CC1CCCC1)C(=O)O` (stereo partly drawn) [Compound 17, 2-[[(2S,3R)-3-amino-2-hydroxy-4-phenyl-butanoyl]amino]-3-cyclopentyl-propanoic acid] was run?
Its IC50 is < 0.1 µM.

For `COc1ccc(C[C@H](NC(=O)[C@@H](O)[C@H](N)Cc2ccccc2)C(=O)O)cc1` [Compound 18, (2S)-2-[[(2S,3R)-3-amino-2-hydroxy-4-phenyl-butanoyl]amino]-3-(4-methoxyphenyl)propanoic acid], which IC50 is on record?
Its IC50 is ≥ 1 µM.

Which IC50 does the source give for `N[C@H](Cc1ccccc1)[C@H](O)C(=O)N[C@@H](Cc1ccc(O)cc1)C(=O)O` [Compound 19, 2-[[(2S,3R)-3-amino-2-hydroxy-4-phenyl-butanoyl]amino]-3-(4-hydroxyphenyl)propanoic acid] here?
The IC50 was ≥ 1 µM.

How did the IC50 turn out when `N[C@H](Cc1ccccc1)[C@H](O)C(=O)N[C@H](C(=O)O)C1CCC1` [Compound 20, (2S)-2-[[(2S,3R)-3-amino-2-hydroxy-4-phenyl-butanoyl]amino]-2-cyclobutyl-acetic acid] was run?
The IC50 was ≥ 1 µM.

Which IC50 does the source give for `N[C@H](Cc1ccccc1)[C@H](O)C(=O)N[C@H](C(=O)O)C1CCOCC1` [Compound 21, 2-[[(2S,3R)-3-amino-2-hydroxy-4-phenyl-butanoyl]amino]-2-tetrahydropyran-4-yl-acetic acid] here?
Its IC50 is ≥ 1 µM.

For `N[C@H](Cc1ccccc1)[C@H](O)C(=O)NC(CC1CC(F)(F)C1)C(=O)O` (stereo partly drawn) [Compound 22, 2-[[(2S,3R)-3-amino-2-hydroxy-4-phenyl-butanoyl]amino]-3-(3,3-difluorocyclobutyl)propanoic acid], which IC50 is on record?
Its IC50 is ≥ 1 µM.

With `N[C@H](Cc1ccccc1)[C@H](O)C(=O)NC(CC1CCOCC1)C(=O)O` (stereo partly drawn) [Compound 23, 2-[[(2S,3R)-3-amino-2-hydroxy-4-phenyl-butanoyl]amino]-3-tetrahydropyran-4-yl-propanoic acid] as the compound, how does the IC50 read?
Its IC50 is < 0.1 µM.

How did the IC50 turn out when `CCC(c1ccccc1)C(NC(=O)[C@@H](O)[C@H](N)Cc1ccccc1)C(=O)O` (stereo partly drawn) [Compound 24, 2-[[(2S,3R)-3-amino-2-hydroxy-4-phenyl-butanoyl]amino]-3-phenyl-pentanoic acid] was run?
The IC50 was ≥ 1 µM.

With `N[C@H](Cc1ccccc1)[C@H](O)C(=O)N[C@@H](Cc1ccc(Br)cc1)C(=O)O` [Compound 25, 2-[[(2S,3R)-3-amino-2-hydroxy-4-phenyl-butanoyl]amino]-3-(4-bromophenyl)propanoic acid] as the compound, how does the IC50 read?
The IC50 was < 0.1 µM.

For `N[C@H](Cc1ccccc1)[C@H](O)C(=O)N[C@@H](Cc1ccccc1Br)C(=O)O` [Compound 26, 2-[[(2S,3R)-3-amino-2-hydroxy-4-phenyl-butanoyl]amino]-3-(2-bromophenyl)propanoic acid], which IC50 is on record?
Its IC50 is ≥ 1 µM.

How did the IC50 turn out when `N[C@H](Cc1ccccc1)[C@H](O)C(=O)NC(C(=O)O)c1ccccc1C(F)(F)F` (stereo partly shown) [Compound 27] was run?
Its IC50 is ≥ 1 µM.

For `N[C@H](Cc1ccccc1)[C@H](O)C(=O)NC(C(=O)O)C1CCNCC1` (stereo partly shown) [Compound 29], which IC50 is on record?
Its IC50 is ≥ 1 µM.

`N[C@H](Cc1ccccc1)[C@H](O)C(=O)NC(C(=O)O)C1CCCCCC1` (stereo partly shown) [Compound 30] was tested. Which IC50 did it give?
The IC50 was 0.1 to 1 µM.

Which IC50 does the source give for `N[C@H](Cc1ccccc1)[C@H](O)C(=O)N[C@H](C(=O)O)c1cccc(OC(F)(F)F)c1` [Compound 31, (S)-2-((2S,3R)-3-amino-2-hydroxy-4-phenylbutanamido)-2-(3-(trifluoromethoxy)phenyl)acetic acid] here?
The IC50 was < 0.1 µM.

`COc1cccc(C(NC(=O)[C@@H](O)[C@H](N)Cc2ccccc2)C(=O)O)c1` (stereo partly shown) [Compound 32] was tested. Which IC50 did it give?
The IC50 was ≥ 1 µM.

How did the IC50 turn out when `N[C@H](Cc1ccccc1)[C@H](O)C(=O)N[C@@H](Cc1cccc(Br)c1)C(=O)O` [Compound 33] was run?
Its IC50 is ≥ 1 µM.

`N[C@H](Cc1ccccc1)[C@H](O)C(=O)N[C@H](C(=O)O)C1CCC(F)(F)CC1` [Compound 34] was tested. Which IC50 did it give?
Its IC50 is 0.1 to 1 µM.

How did the IC50 turn out when `N[C@H](Cc1ccccc1)[C@H](O)C(=O)N[C@@H](C(=O)O)c1cccc(C(F)(F)F)c1` [Compound 35] was run?
Its IC50 is ≥ 1 µM.

With `N[C@H](Cc1ccccc1)[C@H](O)C(=O)N[C@H](C(=O)O)c1cccc(C(F)(F)F)c1` [Compound 36] as the compound, how does the IC50 read?
Its IC50 is < 0.1 µM.

With `CC1(C)CC(C(NC(=O)[C@@H](O)[C@H](N)Cc2ccccc2)C(=O)O)CCO1` (stereo partly shown) [Compound 38] as the compound, how does the IC50 read?
Its IC50 is ≥ 1 µM.

How did the IC50 turn out when `CC(C)C[C@H](NC(=O)[C@@H](O)[C@H](N)Cc1ccc(Br)cc1)C(=O)O` [Compound 39] was run?
Its IC50 is ≥ 1 µM.

Which IC50 does the source give for `CC(C)C[C@H](NC(=O)[C@@H](O)[C@H](N)Cc1ccccc1Br)C(=O)O` [Compound 40] here?
The IC50 was ≥ 1 µM.

With `CC(C)C[C@H](NC(=O)[C@@H](O)[C@H](N)Cc1cccc(Br)c1)C(=O)O` [Compound 41] as the compound, how does the IC50 read?
Its IC50 is ≥ 1 µM.

Which IC50 does the source give for `NC(=O)C(NC(=O)[C@@H](O)[C@H](N)Cc1ccccc1)c1cccc(C(F)(F)F)c1` (stereo partly shown) [Compound 42] here?
Its IC50 is ≥ 1 µM.

With `N[C@H](Cc1ccccc1)[C@H](O)C(=O)NC(c1cccc(C(F)(F)F)c1)c1nnn[nH]1` (stereo partly shown) [Compound 43] as the compound, how does the IC50 read?
Its IC50 is ≥ 1 µM.

With `NC(=O)[C@@H](NC(=O)[C@@H](O)[C@H](N)Cc1ccccc1)c1cccc(OC(F)(F)F)c1` [Compound 44] as the compound, how does the IC50 read?
Its IC50 is ≥ 1 µM.

Which IC50 does the source give for `N[C@H](Cc1ccccc1)[C@H](O)C(=O)NC(C(=O)NO)c1cccc(C(F)(F)F)c1` (stereo partly shown) [Compound 45] here?
The IC50 was 0.1 to 1 µM.

`N[C@H](Cc1ccc(Cl)cc1)[C@H](O)C(=O)N[C@H](C(=O)O)c1cccc(C(F)(F)F)c1` [Compound 49] was tested. Which IC50 did it give?
The IC50 was < 0.1 µM.

How did the IC50 turn out when `N[C@H](Cc1ccccc1)[C@H](O)C(=O)N[C@H](C(=O)NO)c1cccc(OC(F)(F)F)c1` [Compound 52] was run?
The IC50 was ≥ 1 µM.

Which IC50 does the source give for `N[C@H](Cc1ccccc1)[C@H](O)C(=O)N[C@H](C(=O)NO)c1cccc(OC(F)(F)F)c1` [Compound 53] here?
Its IC50 is 0.1 to 1 µM.

`CS(=O)(=O)NC(=O)C(NC(=O)[C@@H](O)[C@H](N)Cc1ccccc1)c1cccc(C(F)(F)F)c1` (stereo partly shown) [Compound 55] was tested. Which IC50 did it give?
Its IC50 is ≥ 1 µM.

For `N[C@H](Cc1ccccc1)[C@H](O)C(=O)NC(c1cccc(C(F)(F)F)c1)c1n[nH]c(=O)o1` (stereo partly shown) [Compound 56], which IC50 is on record?
Its IC50 is < 0.1 µM.

For `NC(Cc1cccc(OC(F)(F)F)c1)C(O)C(=O)N[C@H](C(=O)O)c1cccc(OC(F)(F)F)c1` (stereo partly shown) [Compound 57], which IC50 is on record?
The IC50 was ≥ 1 µM.

`N[C@H](Cc1ccccc1OC(F)(F)F)[C@H](O)C(=O)N[C@H](C(=O)O)c1cccc(OC(F)(F)F)c1` [Compound 61] was tested. Which IC50 did it give?
Its IC50 is 0.1 to 1 µM.

Same assay, conditions: 50 nM purified CNDP2 (Sino Biological), 1 mM Met-His substrate, 30 minutes at 37° C.; TABLE 2

How did the IC50 turn out when `N[C@H](Cc1ccccc1)[C@H](O)C(=O)NC(c1cccc(C(F)(F)F)c1)C(F)(F)C(=O)O` (stereo partly shown) [Compound 64] was run?
Its IC50 is ≥ 1 µM.

For `N[C@H](Cc1ccccc1)[C@H](O)C(=O)NC(C(=O)O)c1cccc(OC(F)F)c1` (stereo partly shown) [Compound 65], which IC50 is on record?
The IC50 was < 0.1 µM.

`N[C@H](Cc1ccccc1)[C@H](O)C(=O)NC(C(=O)O)c1cc(C(F)(F)F)cc(C(F)(F)F)c1` (stereo partly shown) [Compound 66] was tested. Which IC50 did it give?
Its IC50 is ≥ 1 µM.

`N[C@H](Cc1ccccc1)[C@H](O)C(=O)NC(C(=O)O)c1cc(C(F)(F)F)ccc1F` (stereo partly shown) [Compound 67] was tested. Which IC50 did it give?
Its IC50 is ≥ 1 µM.
